Experimental data as given in US4234724A, “Cephalosporin analogues and processes for the preparation thereof” (Fujisawa Pharmaceutical Company, Limited, priority 1977, dated 1980).
≈ marks a conversion by molar mass, not a printed value.

Key:
Assay in all cases: In vitro antibacterial activity, two-fold agar-plate dilution method
Format in all cases: cell-based
E. coli 31 = conditions: Escherichia coli, HI-agar, 37° C., 20 hours, 10^6 viable cells per ml
Experimental: (§1) In vitro antibacterial activity was determined by the two-fold agar-plate dilution method as described below.
(§2) One loopful of an overnight culture of each test strain in Trypticase-soy broth (10^6 viable cells per ml.) was streaked on heart infusion agar (HI-agar) containing graded concentrations of antibiotics, and the minimum inhibitory concentration (MIC) was expressed in terms of μg/ml after incubation at 37° C. for 20 hours.

Kl. pneumoniae 20 = conditions: Klebsiella pneumoniae, HI-agar, 37° C., 20 hours, 10^6 viable cells per ml
Experimental: as §1, §2

Pr. vulgaris 2 = conditions: Proteus vulgaris, HI-agar, 37° C., 20 hours, 10^6 viable cells per ml
Experimental: as §1, §2

Pr. mirabilis 18 = conditions: Proteus mirabilis, HI-agar, 37° C., 20 hours, 10^6 viable cells per ml
Experimental: as §1, §2

SMILES | MIC (E. coli 31) | MIC (Kl. pneumoniae 20) | MIC (Pr. vulgaris 2) | MIC (Pr. mirabilis 18)
CON=C(C(=O)NC1C(=O)N2C(C(=O)O)=CCOC12)c1csc(N)n1 (stereo not drawn) [(1), 7β-[2-Methoxyimino-2-(2-aminothiazol-4-yl)acetamid]-1-oxadethia-3-cephem-4-carboxylic acid (syn isomer)] | 0.05 µg/mL (≈ 0.136 µM) | 0.1 µg/mL (≈ 0.272 µM) | 0.2 µg/mL (≈ 0.544 µM) | 0.05 µg/mL (≈ 0.136 µM)
CCON=C(C(=O)NC1C(=O)N2C(C(=O)O)=CCOC12)c1csc(N)n1 (stereo not drawn) [(2), 7β-[2-Ethoxyimino-2-(2-aminothiazol-4-yl)acetamido]-1-oxadethia-3-cephem-4-carboxylic acid (syn isomer)] | 0.05 µg/mL (≈ 0.131 µM) | 0.025 µg/mL (≈ 0.0656 µM) | 0.05 µg/mL (≈ 0.131 µM) | 0.05 µg/mL (≈ 0.131 µM)
CC(C)ON=C(C(=O)NC1C(=O)N2C(C(=O)O)=CCOC12)c1csc(N)n1 (stereo not drawn) [(3), 7β-[2-Isopropoxyimino-2-(2-aminothiazol-4-yl)acetamido]-1-oxadethia-3-cephem-4-carboxylic acid (syn isomer)] | 0.2 µg/mL (≈ 0.506 µM) | 0.05 µg/mL (≈ 0.126 µM) | 0.1 µg/mL (≈ 0.253 µM) | 0.1 µg/mL (≈ 0.253 µM)
CON=C(C(=O)NC1C(=O)N2C(C(=O)O)=CCOC12)c1nsc(N)n1 (stereo not drawn) [(4), 7β-[2-Methoxyimino-2-(5-amino-1,2,4-thiadiazol-3-yl)acetamido]-1-oxadethia-3-cephem-4-carboxylic acid (syn isomer)] | 0.025 µg/mL (≈ 0.0679 µM) | 0.05 µg/mL (≈ 0.136 µM) | 0.1 µg/mL (≈ 0.271 µM) | 0.1 µg/mL (≈ 0.271 µM)
CON=C(C(=O)NC1C(=O)N2C(C(=O)O)=CCOC12)c1nccc(N)n1 (stereo not drawn) [(5), 7β-[2-Methoxyimino-2-(4-aminopyrimidin-2-yl)acetamido]-1-oxadethia-3-cephem-4-carboxylic acid (syn isomer)] | 0.025 µg/mL (≈ 0.069 µM) | 0.05 µg/mL (≈ 0.138 µM) | 0.1 µg/mL (≈ 0.276 µM) | 0.05 µg/mL (≈ 0.138 µM)
